Results reported in US20120208882A1, “Organic Compounds” (priority 2005, published 2012).
pIC50, pKi: −log10 of the molar value. Structures can show the parent of a compound that is named as a salt. Where two headings read alike, the source gives them in different places.

How the values were obtained:
rh-prostasin = molecular target: T1, rh-prostasin (Homo sapiens, UniProt Q16651); experiment: Biochemical assay, recombinant human prostasin, fluorescent peptide substrate
T1 construct: made in house
Description: (§1) Biochemical assays: Recombinant human prostasin and matriptase and guinea pig prostasin are generated according to methods described in Shipway et al., Biochemical and Biophysical Research Communications 2004; 324(2):953-63). The recombinant enzymes are incubated in an electrolyte buffer test compounds or vehicle in a suitable multiple well assay plate such as a 96 or 384 well plate. At a defined time after the mixing of enzyme with compound. Or vehicle, a suitable fluorescent peptide substrate is added to the assay mixture. As substrate becomes cleaved by the active enzyme; fluorescence (measured using a suitable fluorescence plate reader) increases and the rate of turnover of substrate (i.e. enzyme activity) can be quantified and thus the inhibitory effect of any test compound. The efficacy of test compounds is expressed as the concentration that induces a 50% attenuation in the enzyme activity (Ki). […] Short circuit current (ISC) is then measured by voltage clamping the epithelia to zero millivolts. The amiloride-sensitive ISC is then measured by the addition of amiloride (10 μM) to the apical surface of the epithelia. […] The tracheal potential difference, is then measured using a suitable high impedance voltmeter as described in Takahashi et al., Toxicol Appl Pharmacol. 1995; 131(1):31-6. […]

rh-matriptase = molecular target: T2, rh-matriptase (Homo sapiens, UniProt Q9Y5Y6); experiment: Biochemical assay, recombinant human matriptase, fluorescent peptide substrate
T2 construct: made in house
T2 sequence (Q9Y5Y6 1-855): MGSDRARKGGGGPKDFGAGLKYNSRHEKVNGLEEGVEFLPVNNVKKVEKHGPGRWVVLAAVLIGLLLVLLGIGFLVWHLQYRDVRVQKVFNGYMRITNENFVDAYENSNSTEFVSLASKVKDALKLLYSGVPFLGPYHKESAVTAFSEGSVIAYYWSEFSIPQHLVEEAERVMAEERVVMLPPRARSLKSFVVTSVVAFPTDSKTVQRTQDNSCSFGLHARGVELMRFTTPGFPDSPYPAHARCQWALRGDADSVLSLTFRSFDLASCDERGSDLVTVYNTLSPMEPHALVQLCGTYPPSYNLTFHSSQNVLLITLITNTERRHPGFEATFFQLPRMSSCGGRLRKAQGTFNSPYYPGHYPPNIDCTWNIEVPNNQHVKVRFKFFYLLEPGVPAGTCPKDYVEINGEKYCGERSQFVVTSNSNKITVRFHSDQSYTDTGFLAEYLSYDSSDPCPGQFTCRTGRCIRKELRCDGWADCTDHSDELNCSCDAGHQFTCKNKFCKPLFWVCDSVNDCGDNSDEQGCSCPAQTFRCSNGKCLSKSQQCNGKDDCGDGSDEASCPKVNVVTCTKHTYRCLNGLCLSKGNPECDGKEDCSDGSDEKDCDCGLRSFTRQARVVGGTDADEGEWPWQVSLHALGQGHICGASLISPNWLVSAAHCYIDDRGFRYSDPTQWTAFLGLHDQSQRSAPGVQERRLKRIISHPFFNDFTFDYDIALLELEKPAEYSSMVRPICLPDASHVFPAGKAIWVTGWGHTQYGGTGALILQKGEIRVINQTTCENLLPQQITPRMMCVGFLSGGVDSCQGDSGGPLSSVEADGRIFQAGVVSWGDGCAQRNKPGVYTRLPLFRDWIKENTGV
Description: as §1

rGPig-prostasin = rGPig-prostasin (Cavia porcellus, UniProt A0A286XIW9); experiment: Biochemical assay, recombinant guinea pig prostasin, fluorescent peptide substrate
Description: as §1

[1] = system: Human bronchial epithelial cells (amiloride-sensitive, ENaC-mediated short circuit current); experiment: Epithelial ion transport: amiloride-sensitive short circuit current in Ussing chambers; format: cell-based; details: Epithelial cell, 1.5 h, 50% inhibition of aprotinin-sensitive component of amiloride-sensitive ISC, 90 minutes treatment, read-out: HBEC (IC50)
Description: as §1

[2] = system: Guinea pig tracheal potential difference; experiment: Tracheal potential difference (in vivo); details: for ED50: Cavia porcellus, inhaled or nasal, i.t., read-out: GPig tracheal PD in vivo (ED50)
Description: Biochemical assays: Recombinant human prostasin and matriptase and guinea pig prostasin are generated according to methods described in Shipway et al., Biochemical and Biophysical Research Communications 2004; 324(2):953-63). The recombinant enzymes are incubated in an electrolyte buffer test compounds or vehicle in a suitable multiple well assay plate such as a 96 or 384 well plate. At a defined time after the mixing of enzyme with compound. Or vehicle, a suitable fluorescent peptide substrate is added to the assay mixture. As substrate becomes cleaved by the active enzyme; fluorescence (measured using a suitable fluorescence plate reader) increases and the rate of turnover of substrate (i.e. enzyme activity) can be quantified and thus the inhibitory effect of any test compound. The efficacy of test compounds is expressed as the concentration that induces a 50% attenuation in the enzyme activity (Ki). Epithelial ion transport: Human bronchial epithelial cells are cultured according to methods described in Danahay et al., American Journal of Physiology Lung Cell Molecular Physiology 2002; 282(2):L226-36). When suitably differentiated (days 14-21 after establishing an apical-air interface) epithelial cells are treated with either vehicle, aprotinin (200 μg/ml) or test compound for 90 minutes. Epithelia are then, placed into Ussing Chambers as described in Danahay et al., American Journal of Physiology Lung Cell Molecular Physiology 2002; 282(2):L226-36) maintaining the concentration of vehicle, aprotinin or test compound on the apical side of the epithelia. Short circuit current (ISC) is then measured by voltage clamping the epithelia to zero millivolts. The amiloride-sensitive ISC is then measured by the addition of amiloride (10 μM) to the apical surface of the epithelia. The potency of the test compound is expressed as the concentration inducing a 50% inhibition of the total aprotinin-sensitive component of the amiloride-sensitive ISC. Tracheal potential difference (in vivo): Guinea pigs are anaesthetized using a short acting inhalation anaesthesia such as halothane and N20. Whilst under short acting anaesthesia an oral gavage needle is inserted into the trachea via the oropharangeal route. Once inside the trachea, a small volume (50-200 μl) of vehicle or test compound, in a suitable aqueous-based diluent, is instilled into the airways. Animals then recover and become fully ambulatory. Alternatively test compounds can be administered to animals using aerosol or dry powder dosing. At a defined time after dosing, the animals are surgically anaesthetized using a suitable anaesthesia such as ketamine and xylazine. The trachea is then exposed and a plastic agar bridge electrode is inserted into the tracheal lumen. A reference electrode is also inserted into the layers, of muscle in the animal's neck. The tracheal potential difference, is then measured using a suitable high impedance voltmeter as described in Takahashi et al., Toxicol Appl Pharmacol. 1995; 131(1):31-6. The potency of the test compound is expressed as the dose inducing a 50% reduction in the sensitive-component of the tracheal potential difference.

T1 sequence (Q16651 33-343): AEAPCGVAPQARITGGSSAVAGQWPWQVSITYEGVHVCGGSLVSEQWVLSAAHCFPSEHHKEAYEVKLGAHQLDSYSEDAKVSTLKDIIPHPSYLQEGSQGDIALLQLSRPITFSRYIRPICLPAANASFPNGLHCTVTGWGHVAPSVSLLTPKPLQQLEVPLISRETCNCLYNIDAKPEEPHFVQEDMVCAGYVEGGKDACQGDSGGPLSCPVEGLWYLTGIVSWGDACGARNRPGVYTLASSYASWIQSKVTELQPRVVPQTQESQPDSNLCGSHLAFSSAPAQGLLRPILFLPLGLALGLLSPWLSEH
rGPig-prostasin, sequence (A0A286XIW9 1-343): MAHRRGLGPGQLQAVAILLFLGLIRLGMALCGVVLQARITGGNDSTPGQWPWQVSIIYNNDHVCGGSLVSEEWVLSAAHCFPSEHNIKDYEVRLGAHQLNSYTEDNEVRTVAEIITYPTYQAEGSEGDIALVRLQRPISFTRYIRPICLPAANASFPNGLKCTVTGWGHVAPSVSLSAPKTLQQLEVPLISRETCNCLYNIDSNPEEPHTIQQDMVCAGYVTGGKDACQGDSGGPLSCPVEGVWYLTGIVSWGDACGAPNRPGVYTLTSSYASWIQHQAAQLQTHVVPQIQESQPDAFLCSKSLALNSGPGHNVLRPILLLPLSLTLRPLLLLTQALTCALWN

CN(C)C(=O)COC(=O)Cc1ccc(OC(=O)c2ccc(NC(=N)N)cc2)cc1 [Camostat mesylate, N,N-dimethyl-carbamoylmethyl-p-(p-guanidinobenzoyloxy)phenylacetate]
pKi (rh-prostasin): 6.37
pKi (rh-matriptase): 8.30
pKi (rGPig-prostasin): 7.01
pIC50 [1]: 7.30
Mean absolute tracheal potential difference (± s.e. mean) ([2]; 2 hr, 1 μg/kg intra-tracheal): −10.0 ± 0.7
Mean absolute tracheal potential difference (± s.e. mean) ([2]; 2 hr, 3 μg/kg intra-tracheal): −7.3 ± 0.5
Mean absolute tracheal potential difference (± s.e. mean) ([2]; 2 hr, 10 μg/kg intra-tracheal): −6.4 ± 0.5
Mean absolute tracheal potential difference (± s.e. mean) ([2]; 2 hr, 30 μg/kg intra-tracheal): −5.3 ± 0.3
Mean absolute tracheal potential difference (± s.e. mean) ([2]; 2 hr, 100 μg/kg intra-tracheal): −4.7 ± 0.5
Mean absolute tracheal potential difference (± s.e. mean) ([2]; 5 hr, 3 μg/kg intra-tracheal): −10.8 ± 1.0
Mean absolute tracheal potential difference (± s.e. mean) ([2]; 5 hr, 10 μg/kg intra-tracheal): −9.7 ± 1.5
Mean absolute tracheal potential difference (± s.e. mean) ([2]; 5 hr, 30 μg/kg intra-tracheal): −7.5 ± 0.4
Mean absolute tracheal potential difference (± s.e. mean) ([2]; 5 hr, 100 μg/kg intra-tracheal): −6.5 ± 0.3
Mean absolute tracheal potential difference (± s.e. mean) ([2]; 5 hr, 300 μg/kg intra-tracheal): −5.2 ± 0.3
Mean absolute tracheal potential difference (± s.e. mean) ([2]; 5 hr, 1000 μg/kg intra-tracheal): −5.7 ± 0.4
ED50 ([2]; 2 hr after dosing): 0.0033 mg/kg
ED50 ([2]; 5 hr after dosing): 0.026 mg/kg
